# Laboratory results published in publication PMC8327158, “PEGylated AdipoRon derivatives improve glucose and lipid metabolism under insulinopenic and high-fat diet conditions” (Journal of Lipid Research, 2021).
# Test system: HFD-fed wild-type mice
# Assay: Sphingolipid levels in tissues and serum of HFD-fed mice by mass spectrometry
# Type: in vivo, mouse
# Conditions: average ± SD
# Description: Six-week-old wild-type male mice were fed HFD for 4 weeks or 7 months In total, 5 mg/Kg of PBS, Adiporon, AdipoRonPEG5, AdipoRonPEG6HTL were injected twice a day for 5 days. After 5 days of treatment, systemic test is performed, and serum (Before and after treatment), subcutaneous, epididymal, liver, heart samples were harvested for qPCR and sphingolipid analysis.
# Flash-frozen tissue samples (~40 mg) in a borosilicate glass tube were quenched with 2.0 ml of organic extraction solvent (isopropanol: ethyl acetate, 15:85; v:v) and homogenized with a mechanical tissue disruptor. Immediately afterward, 20 μl of organic internal standard solution was added (Ceramide/Sphingoid Internal Standard Mixture II diluted 1:10 in ethanol). The mixture was vortexed for 20 s and sonicated in ultrasonic bath for 40 min at 40°C. The organic extract was allowed to reach room temperature, and 1.5 ml of HPLC water was added and a two-phase liquid-liquid extraction was performed. The upper phase was transferred to a new clean tube, and the lower aqueous phase containing the protein pellet was re-extracted with additional 2.0 ml of organic extraction solvent. The organic phases were combined and dried under nitrogen stream at 40°C. Dried extracts were stored at –80°C until analysis. For analysis of ceramides and sphingoid base species, the dried residues were reconstituted in 200 μl of methanol. Sphingomyelins required a sample dilution of 1:50 in methanol prior to analysis. Serum sphingolipids were extracted using a similar methodology requiring 25 μl of serum.
# Liver, subcutaneous adipose tissue, pancreas, pancreatic islets were initially homogenized in 500 μl of cold PBS using an ultrasonic probe disruptor and keeping the sample on ice during sonication. In total, 50 μl of aqueous homogenate was aliquoted for protein determination. In total, 400 μl of the lysate was immediately quenched in 2.0 ml of organic extraction solvent.
# In total, 5 μl of reconstituted samples was injected into an LC/MS/MS system for the analysis of ceramides and sphingoid bases, and 1 μl injection was required for the analysis of sphingomyelins. The system consisted of a Shimadzu LCMS-8050 triple-quadrupole mass spectrometer with the dual ion source operating in electrospray positive ionization mode. The mass spectrometer is coupled to a Shimadzu Nexera X2 UHPLC system equipped with three solvent delivery modules LC-30AD, three degassing units DGU-20A5R, an autosampler SIL-30ACMP, and a column oven CTO-20AC operating at 40°C (Shimadzu Scientific Instruments, Columbia, MD). Six sphingoid bases (d18:1 sphingosine, d18:1 sphingosine-1-phosphate, d18:1 deoxysphingosine, d18:0 sphinganine, d18:0 sphinganine-1-phosphate, d18:0 deoxysphinganine) and […] ceramide species and their metabolites (C16:0, C16:0 dihydroceramide, C16:0 glucosylceramide, C16:0 lactosylceramide, C16:0 sphingomyelin, C18:0, C18:0 dihydroceramide, C18:0 glucosylceramide, C18:0 sphingomyelin, C18:1, C20:0, C22:0, C22:0 glucosylceramide, C24:0, C24:0 dihydroceramide, C24:0 lactosylceramide, C24:0 sphingomyelin, C24:1, C24:1 dihydroceramide, C24:1 glucosylceramide, C24:1 sphingomyelin). Quantitative analysis of sphingolipids was achieved using selective reaction monitoring scan mode. Lipid separation was achieved by reverse phase LC on a 2.1 (i.d.) × 150 mm Ascentis Express C8, 2.7 micron (Supelco, Bellefonte, PA) column under gradient elution, using three different mobile phases: eluent A consisting of methanol/water/formic acid, 600/400/0.8, v/v/v with 5 mM ammonium formate, eluent B consisting of methanol/formic acid, 1,000/0.8, v/v with 5 mM ammonium formate, and eluent C consisting of CH3OH/CH2Cl2 350/650. The concentration of each metabolite was determined according to calibration curves using the peak-area ratio of analyte versus corresponding internal standard. Calibration curves were generated using serial dilutions of each target analyte.
# [1] = scWAT, 5 mg/kg twice a day 5 days
# [2] = serum at day 0 (before treatment)
# [3] = serum at day 5, 5 mg/kg twice a day 5 days
structure (smiles),measurement,setting,value
O=C(COc1ccc(C(=O)c2ccccc2)cc1)NC1CCN(Cc2ccc(OCCOCCOCCOCCOCCO)cc2)CC1 [AdipoRonPEG5],Hexosyl 16:0,[1],1715352.2 ± 544724.48 pg/mg
same,Hexosyl 18:0,[1],988756.1 ± 523374.82 pg/mg
same,Hexosyl 20:0,[1],624871.6 ± 310850.97 pg/mg
same,Hexosyl 22:0,[1],5932684.2 ± 2348171.67 pg/mg
same,Hexosyl 24:0,[1],25627611.9 ± 14360009.57 pg/mg
same,Hexosyl 24:1,[1],13838465.2 ± 7503242.47 pg/mg
same,Lactosyl 16:0,[1],44866.5 ± 53044.09 pg/mg
same,Lactosyl 18:0,[1],0.0 ± 0.0 pg/mg
same,Lactosyl 22:0,[1],41846.1 ± 19236.41 pg/mg
same,Lactosyl 24:1,[1],71016.8 ± 18649.91 pg/mg
same,Lactosyl C24:0,[1],41489.9 ± 21166.47 pg/mg
same,Sphingaine1P,[1],40997.6 ± 18111.26 pg/mg
same,Sphinganine,[1],35831.5 ± 25048.56 pg/mg
same,Sphingosine,[1],65862.8 ± 45362.44 pg/mg
same,Sphingosine1P,[1],45575.1 ± 20925.35 pg/mg
same,dCer 16:0,[1],12585.7 ± 3750.43 pg/mg
same,dCer 18:0,[1],16110.9 ± 4383.33 pg/mg
same,dCer 20:0,[1],82646.0 ± 51960.31 pg/mg
same,dCer 22:0,[1],65558.1 ± 8753.52 pg/mg
same,dCer 24:0,[1],87756.9 ± 10704.97 pg/mg
same,dCer 24:1,[1],103545.6 ± 21754.88 pg/mg
same,Cer 14:0,[2],9547.7 ± 2338.7 pg/mg
same,Cer 16:0,[2],29166.2 ± 4917.61 pg/mg
same,Cer 18:0,[2],8552.2 ± 1447.69 pg/mg
same,Cer 18:1,[2],0 pg/mg
same,Cer 20:0,[2],161041.9 ± 19909.93 pg/mg
same,Cer 22:0,[2],2248954.3 ± 477468.89 pg/mg
same,Cer 24:0,[2],1497571.4 ± 240898.06 pg/mg
same,Cer 24:1,[2],1109542.1 ± 131449.16 pg/mg
same,Cer 26:0,[2],11416.3 ± 5402.24 pg/mg
same,Cer 26:1,[2],0 pg/mg
same,DeoxySphinganie,[2],0.0 ± 0.0 pg/mg
same,Deoxysphingosine,[2],0.0 ± 0.0 pg/mg
same,Hexosyl 14:0,[2],2960.2 ± 1473.95 pg/mg
same,Hexosyl 16:0,[2],3186431.1 ± 124319.92 pg/mg
same,Hexosyl 18:0,[2],50804.8 ± 12885.62 pg/mg
same,Hexosyl 20:0,[2],212177.0 ± 30736.45 pg/mg
same,Hexosyl 22:0,[2],12426084.7 ± 1134587.25 pg/mg
same,Hexosyl 24:0,[2],1547284.6 ± 152581.98 pg/mg
same,Hexosyl 24:1,[2],4176146.7 ± 370105.27 pg/mg
same,Lactosyl 16:0,[2],97139.2 ± 3984.55 pg/mg
same,Lactosyl 18:0,[2],0.0 ± 0.0 pg/mg
same,Lactosyl 22:0,[2],67539.8 ± 8954.59 pg/mg
same,Lactosyl 24:1,[2],91085.1 ± 17618.54 pg/mg
same,Lactosyl C24:0,[2],106966.9 ± 12842.2 pg/mg
same,Sphingaine1P,[2],236098.7 ± 23069.11 pg/mg
same,Sphinganine,[2],40000.3 ± 8021.4 pg/mg
same,Sphingosine,[2],34674.5 ± 9280.02 pg/mg
same,Sphingosine1P,[2],626634.8 ± 40618.85 pg/mg
same,dCer 16:0,[2],19797.0 ± 3523.66 pg/mg
same,dCer 18:0,[2],11474.0 ± 1631.86 pg/mg
same,dCer 20:0,[2],4088.3 ± 831.07 pg/mg
same,dCer 22:0,[2],358570.9 ± 58282.32 pg/mg
same,dCer 24:0,[2],224332.4 ± 35925.97 pg/mg
same,dCer 24:1,[2],127711.1 ± 26772.71 pg/mg
same,Cer 14:0,[3],9929.6 ± 3137.7 pg/mg
same,Cer 16:0,[3],15778.4 ± 1918.13 pg/mg
same,Cer 18:0,[3],13708.7 ± 1433.97 pg/mg
same,Cer 18:1,[3],0 pg/mg
same,Cer 20:0,[3],132529.6 ± 32152.61 pg/mg
same,Cer 22:0,[3],1388023.2 ± 196403.0 pg/mg
same,Cer 24:0,[3],1824217.1 ± 192203.29 pg/mg
same,Cer 24:1,[3],1024425.3 ± 215659.12 pg/mg
same,Cer 26:0,[3],16852.6 ± 6836.06 pg/mg
same,Cer 26:1,[3],0 pg/mg
same,DeoxySphinganie,[3],0.0 ± 0.0 pg/mg
same,Deoxysphingosine,[3],0.0 ± 0.0 pg/mg
same,Hexosyl 14:0,[3],2152.8 ± 1534.14 pg/mg
same,Hexosyl 16:0,[3],4458327.8 ± 279958.81 pg/mg
same,Hexosyl 18:0,[3],102580.4 ± 20477.28 pg/mg
same,Hexosyl 20:0,[3],312105.6 ± 82139.38 pg/mg
same,Hexosyl 22:0,[3],7780658.1 ± 1388198.99 pg/mg
same,Hexosyl 24:0,[3],1624021.9 ± 177684.63 pg/mg
same,Hexosyl 24:1,[3],3454314.7 ± 273336.65 pg/mg
same,Lactosyl 16:0,[3],90624.9 ± 13005.26 pg/mg
same,Lactosyl 18:0,[3],0.0 ± 0.0 pg/mg
same,Lactosyl 22:0,[3],65007.0 ± 14500.42 pg/mg
same,Lactosyl 24:1,[3],157880.8 ± 14580.32 pg/mg
same,Lactosyl C24:0,[3],128620.1 ± 18235.69 pg/mg
same,Sphingaine1P,[3],512041.7 ± 138152.22 pg/mg
same,Sphinganine,[3],15276.5 ± 1962.03 pg/mg
same,Sphingosine,[3],21363.8 ± 828.59 pg/mg
same,Sphingosine1P,[3],1121550.6 ± 208889.89 pg/mg
same,dCer 16:0,[3],3599.4 ± 848.4 pg/mg
same,dCer 18:0,[3],4287.0 ± 935.1 pg/mg
same,dCer 20:0,[3],2230.0 ± 831.07 pg/mg
same,dCer 22:0,[3],88406.3 ± 22461.25 pg/mg
same,dCer 24:0,[3],67386.7 ± 20818.51 pg/mg
same,dCer 24:1,[3],33950.3 ± 10616.3 pg/mg
